How the values were obtained:
[1] = Acute in vivo toxicity, single intravenous dose to mice; details: 4.0 mM/kg single intravenous dose, survival for over 14 days
Experimental: This example illustrates the low in vivo toxicity of a representative ligand administer intravenously to mice.
This in vivo LD50 toxicity dose results in an instantaneous in vivo concentration which is orders of magnitude greater than the dose of this agent which inhibits mammalian cell replication in vitro (0.009 mM/L).

[2] = Subacute toxicity, repeated intravenous doses to rats; type: in vivo, Sprague Dawley rats; details: 0.05 millimoles per kg i.v. on 10 days
Description: Ten male Sprague Dawley rats 29 days old and weighing between 73.4 and 87.8 grams at the beginning of the experiment were randomized, employing the block stratification method, into two groups consisting of five rats each. On each of days 1, 2, 3, 6, 7, 8, 9, 10, 13 and 14 of the experiment one set of rats received an intravenous dose of N,N′,N″-tris(dihydroxyphosphorylmethyl)-1,4,7-triazacyclononane (Example 1 C in U.S. Pat. No. 5,236,695) equal to 0.05 millimoles per kg of initial body weight (experimental group) while the other group received an equivalent volume of normal saline solution. The weights of the animals were recorded three times per week and the animals were sacrificed on the 28th day, major organs removed and weighed and tissues removed for microscopic examination.

[3] = test system: mature, nonreplicating cultures of HFF (human foreskin fibroblasts); test: Toxicity toward nonproliferating mammalian cells in vitro; type: cell-based; details: 0.3 mM, nonreplicating HFF in maintenance media, five-day period of observation

| SMILES | mice surviving [1] | weight or rate of weight gain, experimental vs control group ([2]; injection period and two-week post-injection period) | microscopic examination of tissues, experimental vs control group ([2]; necropsy on the 28th day) | weights of major organs, experimental vs control group ([2]; sacrificed on the 28th day) | effect on resting cells [3] |
| --- | --- | --- | --- | --- | --- |
| O=P(O)(O)CN1CCN(CP(=O)(O)O)CCN(CP(=O)(O)O)CC1 [N,N′,N″-tris-(dihydroxyphosphorylmethyl)-1,4,7-triazacyclononane] | Over 50% | – | – | – | – |
| O=P(O)(O)CN1CCN(CP(=O)(O)O)CCN(CP(=O)(O)O)CC1 [N,N′,N″-tris(dihydroxyphosphorylmethyl)-1,4,7-triazacyclononane] | – | no statistically significant difference | no differences | no differences | no effect |
